Results from paper PMC11610403 (Journal of thrombosis and haemostasis : JTH, 2024).

Legend:
[1] = test system: caspase-1 activity in activated THP-1 cells; test: Caspase-1 activity assay in stimulated THP-1 cells; format: cell-based, human; details: P3 peptide in the presence of P1-47-66 (1.0 nM), Figure 2A
vascular leakage = details: given in vivo to mice in the absence of APC or any P1 peptide; cited from earlier work

Row | Substance | synergism with P1-47-66 for reducing caspase-1 activity [1] | vascular leakage in mice (vascular leakage)
1 | P3-42-65: PAR3-derived peptide comprising residues 42-65 (GAPPNSFEEFPFSALEGWTGATIT; UniProt O00254 42-65, looked up, fragment) | reduces caspase-1 activity synergistically | reduce vascular leakage
2 | P3-51-65: PAR3-derived peptide, residues 51-65 (FPFSALEGWTGATIT; UniProt O00254 51-65, looked up, fragment) | similarly showed synergism | 
